Like-named read-outs stand apart in the source and are kept apart here.
Experiments:
[1] = biological target: T1, full-length beta-Catenin (Uniprot ID P35222) (Homo sapiens, UniProt P35222); experiment: Fluorescence polarization IC50 (beta-catenin / 5FAM-TCF4 10-53 competition); format: binding; conditions: fluorescence polarization; read-out: beta-Catenin FP IC50
T1 construct: 10 nM full-length beta-Catenin (Uniprot ID P35222)
T1 sequence (P35222 1-781): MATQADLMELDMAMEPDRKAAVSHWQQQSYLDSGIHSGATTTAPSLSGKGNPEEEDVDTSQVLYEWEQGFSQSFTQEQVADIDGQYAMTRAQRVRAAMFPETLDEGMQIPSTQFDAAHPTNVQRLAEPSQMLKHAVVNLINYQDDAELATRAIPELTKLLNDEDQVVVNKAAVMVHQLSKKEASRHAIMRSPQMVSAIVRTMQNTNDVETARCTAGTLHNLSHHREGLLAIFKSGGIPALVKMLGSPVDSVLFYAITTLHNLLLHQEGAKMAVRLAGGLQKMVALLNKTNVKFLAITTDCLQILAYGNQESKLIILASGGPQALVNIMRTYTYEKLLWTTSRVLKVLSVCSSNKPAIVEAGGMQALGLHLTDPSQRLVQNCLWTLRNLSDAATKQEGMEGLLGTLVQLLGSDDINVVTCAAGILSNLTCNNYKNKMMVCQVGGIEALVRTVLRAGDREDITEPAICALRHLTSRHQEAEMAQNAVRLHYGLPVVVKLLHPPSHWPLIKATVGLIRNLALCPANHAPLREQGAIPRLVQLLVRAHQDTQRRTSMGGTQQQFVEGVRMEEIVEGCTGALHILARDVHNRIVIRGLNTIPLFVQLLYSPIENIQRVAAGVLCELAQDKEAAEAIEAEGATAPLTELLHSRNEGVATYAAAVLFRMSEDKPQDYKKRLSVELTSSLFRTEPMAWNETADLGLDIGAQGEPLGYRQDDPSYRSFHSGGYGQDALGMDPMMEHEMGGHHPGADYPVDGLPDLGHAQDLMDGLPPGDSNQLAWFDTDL

[2] = biological target: T2, beta-catenin/TCF4 engagement (Homo sapiens, UniProt P35222); experiment: Nano-BRET target engagement assay (B-cat-Halo & TCF4-Luc in HEK293 cells); format: cell-based; conditions: read-out: NanoBRET Abs IC50
T2 construct: expressed in transfected cells; host or cells: HEK293
T2 sequence (P35222 1-781): T1 sequence (P35222 1-781)

CC(=O)N1CCC[C@]12CC=CCCCC1(CCCC=CCCCOC(=O)N3CC[C@@](C(=O)N[C@@H](Cc4ccccc4C(F)(F)F)C(=O)N[C@H](C(=O)N[C@@H](C)C(N)=O)[C@@H](C)c4ccc5ccccc5c4)(C3)NC(=O)[C@H](CC(C)C)NC(=O)[C@H](Cc3ccccc3)NC(=O)[C@H](C)NC(=O)[C@H](CCC(N)=O)NC(=O)[C@H](Cc3cccc(C(=O)O)c3)NC(=O)[C@H](CC(=O)O)NC1=O)NC(=O)[C@H](CC(C)(C)C)NC(=O)[C@H](CC(=O)O)NC2=O (stereo partly drawn) [I-2465, Ac-PL3-Asp-Npg-B5-Asp-3COOHF-Gln-Ala-Phe-Leu-PyrS2-2F3MeF-SbMe2NapA-Ala-NH2]
IC50 [1]: 164 nM
IC50 ([2]; absolute IC50): > 20000 nM

CC(=O)N1CCC[C@]12CC=CCCCC1(CCCC=CCCCCCC[C@@](C)(C(=O)N[C@@H](Cc3ccccc3)C(=O)N[C@@H](Cc3csc4ccccc34)C(=O)N[C@@H](CCC(N)=O)C(N)=O)NC(=O)[C@H](CCC(N)=O)NC(=O)[C@H](Cc3ccccc3)NC(=O)[C@H](C)NC(=O)[C@H](C)NC(=O)[C@H](CCC(=O)O)NC(=O)[C@H](CC(=O)O)NC1=O)NC(=O)[C@H](Cc1ccccc1)NC(=O)[C@H](CC(=O)O)NC2=O (stereo partly drawn) [I-1549, Ac-PL3-Asp-Phe-B5-Asp-Glu-Ala-Ala-Phe-Gln-S8-Phe-BztA-Gln-NH2]
IC50 [1]: 13 nM
IC50 ([2]; absolute IC50): 11600 nM

CC(=O)N1CCC[C@]12CC=CCCCC1(CCCC=CCCCOC(=O)N3CC[C@@](C(=O)N[C@@H](Cc4ccccc4C(F)(F)F)C(=O)N[C@@H](Cc4csc5ccccc45)C(=O)N[C@@H](C)C(N)=O)(C3)NC(=O)[C@H](CC(C)C)NC(=O)[C@H](Cc3ccccc3)NC(=O)[C@H](C)NC(=O)[C@H](CCC(=O)N3CCC(N4CCCCC4)CC3)NC(=O)[C@H](Cc3cccc(C(=O)O)c3)NC(=O)[C@H](CC(=O)O)NC1=O)NC(=O)[C@H](CC(C)(C)C)NC(=O)[C@H](CC(=O)O)NC2=O (stereo partly drawn) [I-2317, Ac-PL3-Asp-Npg-B5-Asp-3COOHF-[4Pippip]GlnR-Ala-Phe-Leu-PyrS2-2F3MeF-BztA-Ala-NH2]
IC50 [1]: 12 nM
IC50 ([2]; absolute IC50): 18800 nM

CC(=O)N1CCC[C@]12CC=CCCCC1(CCCC=CCCCOC(=O)N3CC[C@@](C(=O)N[C@@H](Cc4ccsc4)C(=O)N[C@@H](Cc4csc5ccccc45)C(=O)N[C@@H](CCC(=O)N4CCN(CC(F)(F)F)CC4)C(N)=O)(C3)NC(=O)[C@H](CC(C)C)NC(=O)[C@H](Cc3ccccc3)NC(=O)[C@H](C)NC(=O)[C@H](C)NC(=O)[C@H](CN(CC(=O)O)CC(F)(F)F)NC(=O)[C@H](CC(=O)O)NC1=O)NC(=O)[C@H](CC(C)(C)C)NC(=O)[C@H](CC(=O)O)NC2=O (stereo partly drawn) [I-1803, Ac-PL3-Asp-Npg-B5-Asp-TfeGA-Ala-Ala-Phe-Leu-PyrS2-3Thi-BztA-[TfePpz]GlnR-NH2]
IC50 [1]: 20 nM
IC50 ([2]; absolute IC50): 7400 nM

CC(=O)N1CCC[C@]12CC=CCCCC1(CCCC=CCCCOC(=O)N3CC[C@@](C(=O)N[C@@H](Cc4ccsc4)C(=O)N[C@@H](Cc4csc5ccccc45)C(=O)N[C@@H](CO)C(N)=O)(C3)NC(=O)[C@H](Cc3ccccc3)NC(=O)[C@H](Cc3ccccc3)NC(=O)[C@H](C)NC(=O)[C@H](C)NC(=O)[C@H](Cc3ccccc3C(=O)O)NC(=O)[C@H](CC(=O)O)NC1=O)NC(=O)[C@H](CC(C)(C)C)NC(=O)[C@H](CC(=O)O)NC2=O (single isomer, unassigned) [I-1665, Ac-PL3-Asp-Npg-B5-Asp-2COOHF-Ala-Ala-Phe-Phe-PyrS2-3Thi-BztA-Ser-NH2]
IC50 [1]: 17 nM
IC50 ([2]; absolute IC50): 9700 nM

CC(=O)N1CCC[C@]12CC=CCCCC1(CCCC=CCCCOC(=O)N3CC[C@@](C(=O)N[C@@H](Cc4ccccc4Cl)C(=O)N[C@@H](Cc4csc5ccccc45)C(=O)N[C@@H](C)C(N)=O)(C3)NC(=O)[C@H](CC(C)C)NC(=O)[C@H](Cc3ccccc3)NC(=O)[C@H](C)NC(=O)[C@H](C)NC(=O)[C@H](Cc3cccc(C(=O)O)c3)NC(=O)[C@H](CC(=O)O)NC1=O)NC(=O)[C@H](CC(C)(C)C)NC(=O)[C@H](CC(=O)O)NC2=O (stereo partly drawn) [I-1851, Ac-PL3-Asp-Npg-B5-Asp-3COOHF-Ala-Ala-Phe-Leu-PyrS2-2C1F-BztA-Ala-NH2]
IC50 [1]: 25 nM
IC50 [2]: 3800 nM

CC(=O)N1CCC[C@]12CC=CCCCC1(CCCC=CCCCOC(=O)N3CC[C@@](C(=O)N[C@@H](Cc4ccccc4Cl)C(=O)N[C@@H](Cc4csc5ccccc45)C(=O)N[C@@H](C)C(N)=O)(C3)NC(=O)[C@H](CO)NC(=O)[C@H](Cc3ccccc3)NC(=O)[C@H](C)NC(=O)[C@H](C)NC(=O)[C@H](Cc3cccc(C(=O)O)c3)NC(=O)[C@H](CC(=O)O)NC1=O)NC(=O)[C@H](CC(C)(C)C)NC(=O)[C@H](CC(=O)O)NC2=O (stereo partly drawn) [I-2027, Ac-PL3-Asp-Npg-B5-Asp-3COOHF-Ala-Ala-Phe-Ser-PyrS2-2C1F-BztA-Ala-NH2]
IC50 [1]: 13 nM
IC50 [2]: 4100 nM

CC(=O)N1CCC[C@]12CC=CCCCC1(CCCC=CCCCOC(=O)N3CC[C@@](C(=O)N[C@@H](Cc4ccsc4)C(=O)N[C@H](C(=O)N[C@@H](CCC(N)=O)C(N)=O)[C@@H](C)c4ccc5ccccc5c4)(C3)NC(=O)[C@H](CC(C)C)NC(=O)[C@H](Cc3ccccc3)NC(=O)[C@H](C)NC(=O)[C@H](C)NC(=O)[C@H](Cc3cccc(C(=O)O)c3)NC(=O)[C@H](CC(=O)O)NC1=O)NC(=O)[C@H](CC(C)(C)C)NC(=O)[C@H](CC(=O)O)NC2=O (stereo partly drawn) [I-2313, Ac-PL3-Asp-Npg-B5-Asp-3COOHF-Ala-Ala-Phe-Leu-PyrS2-3Thi-SbMe2NapA-Gln-NH2]
IC50 [1]: 22 nM
IC50 ([2]; absolute IC50): 24300 nM

CC(=O)N1CCC[C@]12CC=CCCCC1(CCCC=CCCCOC(=O)N3CC[C@@](C(=O)N[C@@H](Cc4ccccc4Cl)C(=O)N[C@@H](Cc4csc5ccccc45)C(=O)N[C@@H](CC(N)=O)C(N)=O)(C3)NC(=O)[C@H](CO)NC(=O)[C@H](Cc3ccccc3)NC(=O)[C@H](C)NC(=O)[C@H](C)NC(=O)[C@H](Cc3cccc(C(=O)O)c3)NC(=O)[C@H](CC(=O)O)NC1=O)NC(=O)[C@H](CC(C)(C)C)NC(=O)[C@H](CC(=O)O)NC2=O (stereo partly drawn) [I-2038, Ac-PL3-Asp-Npg-B5-Asp-3COOHF-Ala-Ala-Phe-Ser-PyrS2-2C1F-BztA-Asn-NH2]
IC50 [1]: 11 nM
IC50 [2]: 11800 nM

CC(=O)N1CCC[C@]12CC=CCCCC1(CCCC=CCCCOC(=O)N3CC[C@@](C(=O)N[C@@H](Cc4ccsc4)C(=O)N[C@@H](Cc4csc5ccccc45)C(=O)N[C@@H](CCC(N)=O)C(N)=O)(C3)NC(=O)[C@H](CC(C)C)NC(=O)[C@H](Cc3ccccc3)NC(=O)[C@H](CCCN3CCC(F)(F)CC3)NC(=O)[C@H](C)NC(=O)[C@H](CC(=O)O)NC(=O)[C@H](CC(=O)O)NC1=O)NC(=O)[C@H](CC(C)(C)C)NC(=O)[C@H](CC(=O)O)NC2=O (stereo partly drawn) [I-1502, Ac-PL3-Asp-Npg-B5-Asp-Asp-Ala-F2PipNva-Phe-Leu-PyrS2-3Thi-BztA-Gln-NH2]
IC50 [1]: 34 nM
IC50 ([2]; absolute IC50): > 20000 nM

CC(=O)N1CCC[C@]12CC=CCCCC1(CCCC=CCCCOC(=O)N3CC[C@@](C(=O)N[C@@H](Cc4ccsc4)C(=O)N[C@@H](Cc4csc5ccccc45)C(=O)N[C@@H](CCC(N)=O)C(N)=O)(C3)NC(=O)[C@H](CC(N)=O)NC(=O)[C@H](Cc3ccccc3)NC(=O)[C@H](C)NC(=O)[C@H](C)NC(=O)[C@H](CC(N)=O)NC(=O)[C@H](CC(N)=O)NC1=O)NC(=O)[C@H](CC(C)(C)C)NC(=O)[C@H](CC(=O)O)NC2=O (stereo partly drawn) [I-1555, Ac-PL3-Asp-Npg-B5-Asn-Asn-Ala-Ala-Phe-Asn-PyrS2-3Thi-BztA-Gln-NH2]
IC50 [1]: 180 nM
IC50 ([2]; absolute IC50): 29300 nM
